Reference: a compilation of properties of binary mixtures (doi:10.1016/j.fluid.2021.113175)

Test: xn = mol fraction of the nth substance listed
Settings: 100 kPa

COP(=O)([O-])OC.C[N+]1(CCO)CCCC1 + CCO
viscosity [mPa·s]
Settings | 293.15 K | 298.15 K | 303.15 K | 308.15 K | 313.15 K | 318.15 K | 323.15 K | 328.15 K | 333.15 K | 338.15 K
x1 = 0.0561 | 2.69 | 2.27 | – | – | 1.54 | 1.33 | 1.17 | 1.04 | 0.92 | 0.82
x1 = 0.1077 | – | 4.39 | 3.88 | – | 3.23 | 2.94 | 2.69 | 2.47 | 2.28 | 2.1
x1 = 0.1523 | 7.31 | 6.71 | 6.24 | – | 5.31 | 4.98 | 4.66 | 4.37 | 4.09 | 3.85
x1 = 0.2079 | – | 10.91 | – | 8.65 | 7.87 | – | 6.44 | – | 5.33 | 4.93
x1 = 0.2537 | 19.2 | 16.9 | 14.81 | 13.08 | 11.56 | – | 9.55 | 8.62 | 8 | 7.27
x1 = 0.3084 | – | 27.7 | – | – | 18.5 | 16.22 | 14.35 | – | 11.68 | 10.55
x1 = 0.4033 | – | 48.5 | 40.2 | 34.3 | 30 | – | 22.9 | 20.3 | – | –
x1 = 0.5077 | – | 98.2 | – | 64.3 | 53.4 | – | – | 33.1 | 28 | –
x1 = 0.6042 | 220 | 174 | 133.8 | 108.1 | 87.6 | 72.1 | – | – | 42 | –
x1 = 0.7053 | – | – | 219 | 167 | 128.5 | 102.3 | 82.6 | 66.1 | – | 43.3
x1 = 0.8055 | 670 | – | 346 | 257 | 196 | 152.8 | 120.7 | 95 | 76.3 | –
x1 = 0.9053 | 1030 | 722 | 512 | 374 | – | 212 | 163 | 128.6 | 102.4 | 80.5
x1 = 1 | 1452 | 981 | 687 | 496 | 366 | – | 210 | 162 | 127.5 | 96.7

CCO + CC[N+]1(C)CCCC1.COP(=O)([O-])OC
x2 = 0
Settings | viscosity [mPa·s]
293.15 K | 1.19
298.15 K | 1.08
303.15 K | 0.98
313.15 K | 0.82
323.15 K | 0.69
338.15 K | 0.54
